Results taken from US10206908B2, “3-(1H-pyrrolo[3,2-C]pyridin-2-YL)-1H-pyrazolo[3,4-C]pyridines and therapeutic uses thereof” (Samumed, LLC, priority 2015, dated 2019).

Key:
Assay type in all cases: cell-based
IL-6 (THP-1 cells) = assay: IL-6 inhibition in LPS-stimulated THP-1 monocytes (HTRF); settings: Homo sapiens; for inhibition at 10 µM: THP-1, read-out: percent inhibition at 10 μM; for EC50: IL-6, THP-1 cells, LPS 500 ng/mL, 22 hours
Procedure, shortened: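 THP-1 cells kept 24 h in 1% FBS medium, exposed to compound 2 h at 37 °C, then stimulated with 500 ng/mL LPS for 22 h. Secreted IL-6 quantified by HTRF (665/620 nm ratio), duplicates. Values normalized to DMSO; EC50 by four-parameter variable-slope regression.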

[1] = tested on: Wnt activity (Sp5-Luc reporter, SW480 colon carcinoma cells); assay: Screening assay for Wnt activity: Sp5-Luc reporter gene assay in SW480 colon carcinoma cells; settings: Homo sapiens; for EC50: Sp5-Luc reporter, SW480 cells, overnight incubation; for inhibition at 10 µM: SW480, read-out: percent inhibition at 10 μM
Procedure, shortened: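 SW480 colon carcinoma cells stably carrying Sp5 promoter (eight TCF/LEF sites)-driven firefly luciferase, plated at 4,000 cells/well in 1% FBS medium and incubated overnight at 37° C. Luminescence normalised to DMSO-only cells; EC50 from four-parameter variable-slope nonlinear regression.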

[2] = tested on: primary human fibroblasts derived from IPF patients (LL29 cells) treated with TGF-β1; assay: Inhibition of the fibrotic process: αSMA staining in TGF-β1 treated LL29 fibroblasts; settings: Fibroblast; for EC50: 96 h, % αSMA positive LL29 cells, TGF-β1 20 ng/mL, 4 days; for inhibition at 10 µM: read-out: percent inhibition at 10 μM
Procedure, shortened: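 Read-out after 4-day incubation: αSMA staining with 1 μM SYTOX green nuclear counterstain (30 min, room temperature). Cells were LL29 primary fibroblasts from IPF patients, in 1% FBS F12, exposed to TGF-β1 with test compound, referenced to TGF-β1/DMSO control wells.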

SW480 colon cancer cells = assay: Cell viability assay (CellTiter-Blue) in SW480 colon cancer cells; settings: Homo sapiens; for EC50: 96 h, SW480 cell viability, four days; for inhibition at 10 µM: SW480, read-out: percent inhibition at 10 μM
Procedure, shortened: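 Fluorescence from resazurin reduced to resorufin by metabolically active cells was the read-out, taken after ~3 h with CellTiter-Blue.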

[3] = tested on: primary human mesenchymal stem cells (hMSCs); assay: Induction of chondrogenesis in hMSCs (chondrogenic nodules, Rhodamine B/Nile Red); settings: 6 days; for EC50: concentration required to induce 50% levels of chondrogenesis vs TGF-β3, read-out: Conc (nM) of 50% TGF-β3 activity; for Emax: relative to TGF-β3 (10 ng/mL) positive control, read-out: Max. Activity as % TGF-β3 activity
Procedure, shortened: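 Primary hMSCs at passages 3 to 6 were scored for chondrogenic nodules. Counts were normalized to the mean of 3 DMSO wells on the same plate, averaging 3 replicate wells per concentration. TGF-β3 served as positive control; reported values are the concentration giving 50% chondrogenesis plus maximum activity and its dose.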

EC50 (IL-6 (THP-1 cells)) [µM]	EC50 [1] [µM]	EC50 (SW480 colon cancer cells) [µM]	EC50 [3] [nM]	SMILES	inhibition at 10 µM (IL-6 (THP-1 cells)) [%]	EC50 [2] [µM]	inhibition at 10 µM (SW480 colon cancer cells) [%]	Emax [3] [%]	inhibition at 10 µM [1] [%]	inhibition at 10 µM [2] [%]
> 10	0.58	> 10	10	O=C(Nc1cncc(-c2cc3c(-c4cc5cnccc5[nH]4)n[nH]c3cn2)c1)c1ccccc1 [Compound 263, N-(5-(3-(1H-Pyrrolo[3,2-c]pyridin-2-yl)-1H-pyrazolo[3,4-c]pyridin-5-yl)pyridin-3-yl)benzamide]	10.3	0.097	8.5	152		
3.46	1.89	5.04	10	CC(C)(C)CC(=O)Nc1cncc(-c2cc3c(-c4cc5cnccc5[nH]4)n[nH]c3cn2)c1 [Compound 268, N-(5-(3-(1H-Pyrrolo[3,2-c]pyridin-2-yl)-1H-pyrazolo[3,4-c]pyridin-5-yl)pyridin-3-yl)-3,3-dimethylbutanamide]		4.01		59		
4.61	3.88	> 10		CCCCC(=O)Nc1cncc(-c2cc3c(-c4cc5cnccc5[nH]4)n[nH]c3cn2)c1 [Compound 271, N-(5-(3-(1H-Pyrrolo[3,2-c]pyridin-2-yl)-1H-pyrazolo[3,4-c]pyridin-5-yl)pyridin-3-yl)pentanamide]		4.69	26.2	50		
> 10	1.54	> 10	30	O=C(Nc1cncc(-c2cc3c(-c4cc5cnccc5[nH]4)n[nH]c3cn2)c1)C1CC1 [Compound 272, N-(5-(3-(1H-Pyrrolo[3,2-c]pyridin-2-yl)-1H-pyrazolo[3,4-c]pyridin-5-yl)pyridin-3-yl)cyclopropanecarboxamide]	9.6	1.9	18.6	58		
2.69	1.62	5.2	30	O=C(Nc1cncc(-c2cc3c(-c4cc5cnccc5[nH]4)n[nH]c3cn2)c1)C1CCCCC1 [Compound 275, N-(5-(3-(1H-Pyrrolo[3,2-c]pyridin-2-yl)-1H-pyrazolo[3,4-c]pyridin-5-yl)pyridin-3-yl)cyclohexanecarboxamide]		1.88		59		
0.449	0.572	0.44	10	CC(C)CC(=O)Nc1cncc(-c2cc3c(-c4cc5c(-c6cccs6)nccc5[nH]4)n[nH]c3cn2)c1 [Compound 338, 3-Methyl-N-(5-(3-(4-(thiophen-2-yl)-1H-pyrrolo[3,2-c]pyridin-2-yl)-1H-pyrazolo[3,4-c]pyridin-5-yl)pyridin-3-yl)butanamide]		0.155		81		
> 10	1.49	0.611	300	CN(C)c1cncc(-c2cc3c(-c4cc5c(-c6cccs6)nccc5[nH]4)n[nH]c3cn2)c1 [Compound 343, N,N-Dimethyl-5-(3-(4-(thiophen-2-yl)-1H-pyrrolo[3,2-c]pyridin-2-yl)-1H-pyrazolo[3,4-c]pyridin-5-yl)pyridin-3-amine]	0	0.694		51		
> 10	3.65	2.4	10	c1csc(-c2nccc3[nH]c(-c4n[nH]c5cnc(-c6cncc(CN7CCCCC7)c6)cc45)cc23)c1 [Compound 351, 5-(5-(Piperidin-1-ylmethyl)pyridin-3-yl)-3-(4-(thiophen-2-yl)-1H-pyrrolo[3,2-c]pyridin-2-yl)-1H-pyrazolo[3,4-c]pyridine]	0	1.99		59		
> 10	> 10	> 10	30	CC(C)C(=O)Nc1cncc(-c2cc3c(-c4cc5c(-c6cc(F)cc(CNS(C)(=O)=O)c6)nccc5[nH]4)n[nH]c3cn2)c1 [Compound 485, N-(5-(3-(4-(3-Fluoro-5-(methylsulfonamidomethyl)phenyl)-1H-pyrrolo[3,2-c]pyridin-2-yl)-1H-pyrazolo[3,4-c]pyridin-5-yl)pyridin-3-yl)isobutyramide]	47.8	> 10	10.5	80	43.9	0
> 10	> 10	> 10	10	CCCCC(=O)Nc1cncc(-c2cc3c(-c4cc5c(-c6cc(F)cc(CNS(C)(=O)=O)c6)nccc5[nH]4)n[nH]c3cn2)c1 [Compound 495, N-(5-(3-(4-(3-Fluoro-5-(methylsulfonamidomethyl)phenyl)-1H-pyrrolo[3,2-c]pyridin-2-yl)-1H-pyrazolo[3,4-c]pyridin-5-yl)pyridin-3-yl)pentanamide]	34.8	> 10	0	111	29.6	3.3
> 10	> 10	> 10		CS(=O)(=O)NCc1cc(F)cc(-c2nccc3[nH]c(-c4n[nH]c5cnc(-c6cncc(NC(=O)C7CCC7)c6)cc45)cc23)c1 [Compound 497, N-(5-(3-(4-(3-Fluoro-5-(methylsulfonamidomethyl)phenyl)-1H-pyrrolo[3,2-c]pyridin-2-yl)-1H-pyrazolo[3,4-c]pyridin-5-yl)pyridin-3-yl)cyclobutanecarboxamide]	38.8	> 10	12.8	16	27.2	0
3.42	> 10	> 10	30	CS(=O)(=O)NCc1cc(F)cc(-c2nccc3[nH]c(-c4n[nH]c5cnc(-c6cncc(CNCC7CCCC7)c6)cc45)cc23)c1 [Compound 501, N-(3-(2-(5-(5-(((Cyclopentylmethyl)amino)methyl)pyridin-3-yl)-1H-pyrazolo[3,4-c]pyridin-3-yl)-1H-pyrrolo[3,2-c]pyridin-4-yl)-5-fluorobenzyl)methanesulfonamide]		> 10	23	52	49.3	41.7
3.5	3.2	3.59	900	CN(C)CCOc1cncc(-c2cc3c(-c4cc5c(-c6ccc(F)cc6)nccc5[nH]4)n[nH]c3cn2)c1 [Compound 531, 2-((5-(3-(4-(4-Fluorophenyl)-1H-pyrrolo[3,2-c]pyridin-2-yl)-1H-pyrazolo[3,4-c]pyridin-5-yl)pyridin-3-yl)oxy)-N,N-dimethylethan-1-amine]		0.92		113		
0.393	0.03	> 10	10	Fc1ccccc1-c1nccc2[nH]c(-c3n[nH]c4cnc(-c5cn[nH]c5)cc34)cc12 [Compound 539, 3-(4-(2-Fluorophenyl)-1H-pyrrolo[3,2-c]pyridin-2-yl)-5-(1H-pyrazol-4-yl)-1H-pyrazolo[3,4-c]pyridine]		0.076	44.4	89		
3.19	1.01	6.35	10	Oc1cncc(-c2cc3c(-c4cc5c(-c6cccs6)nccc5[nH]4)n[nH]c3cn2)c1 [Compound 709, 5-(3-(4-(Thiophen-2-yl)-1H-pyrrolo[3,2-c]pyridin-2-yl)-1H-pyrazolo[3,4-c]pyridin-5-yl)pyridin-3-ol]		0.34		83		
1.1	1.51	2.45	300	CS(=O)(=O)NCc1cc(F)cc(-c2nccc3[nH]c(-c4n[nH]c5cnc(-c6cncc(OCc7ccccc7)c6)cc45)cc23)c1 [Compound 774, N-(3-(2-(5-(5-(Benzyloxy)pyridin-3-yl)-1H-pyrazolo[3,4-c]pyridin-3-yl)-1H-pyrrolo[3,2-c]pyridin-4-yl)-5-fluorobenzyl)methanesulfonamide]		0.363		115		
